# Experimental data taken from patent US8592446B2, “[1,10]-phenanthroline derivatives for the treatment of neurodegenerative or haematological diseases” (Noscira, S.A., priority 2007, dated 2013).
# Where two headings read alike, the source gives them in different places.
# Experiments:
# [1] = Chelating ability with Fe (III) (absorbance spectra); format: physicochemical; conditions: PBS 10 mM, pH 7.4, ligand and Fe(III) 200 μM, FIG. 1
# Procedure: FIG. 1 is an absorbance spectrum of compounds 4, 7, 8 and 10 in absence and presence of Fe(III). PBS 10 mM, pH 7.4. Concentration of ligand and Fe(III), 200 μM.
# Only one line is observed, as the spectra are overlapping (see FIG. 1).
# SH-SY5Y cells = assay: Neuroprotection against Aβ25-35 toxicity (LDH assay); format: cell-based; conditions: Homo sapiens, pre-treated 1 hour, 200 μM Aβ25-35 24 hours, read-out: Protect. beta-Amyloid25-35 (minimum concentration showing neuroprotection)
# [2] = system: SH-SY5Y human neuroblastoma cells; assay: Protection against 6-OHDA-induced cell death, condition A (10% foetal bovine serum); format: cell-based; conditions: preincubated 2 hours, 6-OHDA 75 μM 16 hours, read-out: Protect. 6-OHDA (+ FBS) (minimum concentration with neuroprotective effect)
# [3] = system: SH-SY5Y human neuroblastoma cells; assay: Protection against hydrogen peroxide-induced cell death (LDH); format: cell-based; conditions: compound 1 h before H2O2 100 μM, 24 h
# [4] = Screening pharmacokinetic study, plasma and brain (LC-MS/MS); format: in vivo, mice (C57BL6/J); conditions: mice; for Kp / bioavailability / Tmax / AUC / Cmax / half-life: male, C57BL6/J, mouse; for Kp: brain and plasma
# Procedure: The objective of this study is to evaluate the oral bioavailability and the plasmatic and brain pharmacokinetic parameters after oral and intravenous administration, thus determining if compounds of formula (I) are able to cross the blood brain barrier (BBB). […] Each compound was solved in appropriate excipients. In the case of oral administration, compound was administered by means of an oral gavage coupled to a syringe. In the intravenous administration animals, the test item was administered by a single injection with a syringe coupled to a 30 G needle.
# Two animals were sacrificed (according to internal SOPs and following animal handling and welfare guidelines) at each selected extraction times (i.e. 30 min, 1 h, 2 h, 4 h, 6 h, 8 h and 24 hours after administration), and from each animal, both brain and blood samples were obtained. Plasma was extracted by centrifugation of the blood samples. Each sample time represents two male mice from which samples were obtained.
# The method for the analysis of plasma and brain samples involved isolation of the analyte from the biological matrix by protein precipitation or solid-phase extraction followed by analysis using LC-MS/MS. Limits of quantification for these compounds were in the order of 2-10 ng/mL. The software Winnonlin professional version 5.2 was used for the calculation of pharmacokinetic parameters.
# In the following tables, the abbreviations have the meaning indicated below: • AUC=Area under the curve • T1/2=Half-life • Tmax=the time after administration of a drug when the maximum plasma concentration is reached; when the rate of absorption equals the rate of elimination • Cmax=maximum plasma concentration of the drug • V. Adm. and Vol. Adm.=volume of administration
# [5] = intravenous route, group 1-2 mg/kg (Compound 4, 8: 1.00; 7: 1.20; 10: 2.00 mg/Kg), brain
# [6] = intravenous route, group 1-2 mg/kg (Compound 4, 8: 1.00; 7: 1.20; 10: 2.00 mg/Kg), plasma
structure (smiles),measurement,setting,value
"CCN(CC)CCOc1cc(/C=N/O)nc2c1ccc1cccnc12 [Compound 10, 4-(2-Diethylamino-ethoxy)-[1,10]phenanthroline-2-carbaldehyde oxime]",Ability to complex Fe (III) (change in absorbance spectra),[1],no change in the absorbance spectra
same,minimal effective concentration,SH-SY5Y cells,0.5 µM
same,minimal effective concentration,[2],0.05 µM
same,Protect. H2O2 (minimum concentration for which protection was determined),[3],50 nM
same,Kp,"[4]; iv, brain AUC relative to plasma AUC, intravenous route, group 1-2 mg/kg, read-out: % AUC",0.229
same,Kp,"[4]; iv, brain Cmax relative to plasma Cmax, intravenous route, group 1-2 mg/kg, read-out: % Cmax",0.137
same,Kp,"[4]; po, 20 mg/kg, brain AUC relative to plasma AUC, 20 mg/kg oral route, read-out: % AUC",0.119
same,Kp,"[4]; po, 20 mg/kg, brain Cmax relative to plasma Cmax, 20 mg/kg oral route, read-out: % Cmax",0.0876
same,Kp,"[4]; po, 200 mg/kg, brain AUC relative to plasma AUC, 200 mg/kg oral route, read-out: % AUC",8.32
same,Kp,"[4]; po, 200 mg/kg, brain Cmax relative to plasma Cmax, 200 mg/kg oral route, read-out: % Cmax",1.96
same,bioavailability,"[4]; plasma, 20 mg/kg oral route (low dose)",12.5%
same,bioavailability,"[4]; plasma, 200 mg/kg oral route (high dose)",77.6%
same,Tmax,"[4]; 20 mg/kg oral route, brain",1 h
same,AUC,"[4]; 20 mg/kg oral route, plasma",184 ng·h/mL
same,Cmax,"[4]; 20 mg/kg oral route, plasma",149 ng/mL
same,Tmax,"[4]; 20 mg/kg oral route, plasma",1 h
same,half-life,"[4]; 20 mg/kg oral route, plasma",4 h
same,Tmax,"[4]; 200 mg/kg oral route, brain",2 h
same,AUC,"[4]; 200 mg/kg oral route, plasma",11500 ng·h/mL
same,Cmax,"[4]; 200 mg/kg oral route, plasma",3950 ng/mL
same,Tmax,"[4]; 200 mg/kg oral route, plasma",0.5 h
same,half-life,"[4]; 200 mg/kg oral route, plasma",3.79 h
same,Tmax,[4]; [5],0.08 h
same,half-life,[4]; [5],2.6 h
same,AUC,[4]; [6],148 ng·h/mL
same,Cmax,[4]; [6],136 ng/mL
same,Tmax,[4]; [6],0.08 h
same,half-life,[4]; [6],8.1 h
same,Cmax Brain,"[4]; 20 mg/kg oral route, brain",13.07 ng/g
same,Cmax Brain,"[4]; 200 mg/kg oral route, brain",7751.80 ng/g
same,Cmax Brain,[4]; [5],18.7 ng/g
